Assay results as given in US20120308662A1, “PARTICULATE PREPARATION AND METHOD FOR PRODUCING THE SAME” (NITTO DENKO CORPORATION, priority 2011, published 2012).
Structures can show the parent of a compound that is named as a salt.

Key:
[1] = Measurement of average particle diameter of particulate formulation (automatic particle image analyzer); assay type: physicochemical; details: particle diameter of 50% by volume; 20000 or more particles
Protocol: Herein, the “average particle diameter” means the particle diameter of 50% by volume of the entire particles and may be measured by using an “automatic particle image analyzer” (a particle image analyzer is an apparatus for measuring the particle diameter from images of photographed particles) and a “laser diffraction particle size distribution analyzer” (or a “laser diffraction/scattering particle size distribution analyzer”).
The average particle diameter was measured using 20000 or more particles with an automatic particle image analyzer (Morphologi (registered trade name)-G3 from Malvern Instruments).

[2] = Dissolution test, flow-through cell method of the Japanese Pharmacopoeia; assay type: physicochemical; details: Tamsulosin hydrochloride
Protocol: According to the flow-through cell method disclosed in the Japanese Pharmacopoeia, the test was carried out using a dissolution medium which was one of 1st fluid for dissolution test (pH 1.2), 2nd fluid for dissolution test (pH 6.8), and a disodium hydrogen phosphate-citric acid buffer solution at pH 7.2 (obtained by dissolving 7.1 g of dehydrated disodium hydrogen phosphate in water and adjusting the total volume to be 1000 mL, and adjusting the pH to 7.2 by adding, to the obtained solution, a solution obtained by dissolving 5.3 g of citric acid monohydrate in water and adjusting the total volume to be 1000 mL).
Swinnex Filter Holder 25 mm (from Nippon Millipore) was used for a cell. In order to prevent flowing out of the particulate formulations, a support screen (25 mm stainless, from Nippon Millipore), Durapore Membrane Filters (PVDF, Hydrophilic, 0.45 μm, 25 mm, from Nippon Millipore), and a silicon gasket 25 mm (Swinnex Filter Holder from Nippon Millipore) were successively installed. Masterflex L/S (Model 7524-50 from Cole Parmer Instrument COMPANY) was used as a pump and a dissolution medium was transported at 2.5 mL/min. Besides that, the test was carried out according to the flow-through cell method disclosed in the Japanese Pharmacopeia. An eluate was sampled 10, 30, 60 minutes after starting the test and the dissolution amount of the drug in the eluate was measured by high performance liquid chromatography (HPLC) and the dissolution rate to the initial drug content was calculated.

Compound: CCOc1ccccc1OCCN[C@H](C)Cc1ccc(OC)c(S(N)(=O)=O)c1 [Comparative Example 9, Tamsulosin hydrochloride]
- Average particle diameter of particulate formulations [1]: 2.7 μm
- Elution rate ratio between pH 6.8 and pH 1.2 ([2]; 60 min): 2.4
- Drug dissolution under a condition of pH 1.2, in words ([2]; pH 1.2): high drug dissolution rate
- Pharmaceutical elution rate 60 minutes after starting the test(%) ([2]; pH 1.2, 60 min): 36.7%
- Drug dissolution under a condition of pH 6.8, in words ([2]; pH 6.8): high drug dissolution rate
- Pharmaceutical elution rate 60 minutes after starting the test(%) ([2]; pH 6.8, 60 min): 88.4%
